The values that follow come from patent US9636409B2, “Enzyme and receptor modulation using covalent conjugates of alpha,alpha-disubstituted glycine esters” (GlaxoSmithKline Intellectual Property Development Limited, priority 2008, dated 2017).

The subject of data set [1] is U937 cells. Briefly: Cell accumulation assay in U937 cells. In kind it is in vitro ADME. The settings on record: U937 versus HUT 78; result in words. As to the method:
Cells (8×10^4/mL) were incubated at 37° C. in culture medium containing 6 μM compound in a 5% (v/v) CO2-humidified atmosphere. Incubations were terminated after 6 h by centrifugation of 25 mL aliquots of the cell suspension at 300 g for 5 minutes at 4° C. 0.2 mL samples of the culture media supernatants were added to 4 volumes of acetonitrile (Sigma-Aldrich). After decanting the supernatant, the residual cell pellet (2×10^6 cells) was extracted into 1 mL of acetonitrile. Samples were then analysed for the ester and acid metabolite at room temperature by LC/MS/MS (Sciex API3000). Chromatography was based on a MeCN (75×21 mm) column with a 5-95% (v/v) acetonitrile, 0.1% (v/v) formic acid mobile phase. For the zero time samples, the cell suspension was chilled and centrifuged as soon as the ester had been added and then extracted into acetonitrile as described. Levels in cells are expressed as ng/mL.

For data set [2], the target named is T1, p38 MAP Kinase α (Homo sapiens, UniProt Q16539).
T1 construct: purchased Upstate (Dundee UK)
Kind of data set: p38 MAP Kinase enzyme assay. In kind it is biochemical. The settings on record: Table 1 (biology); compound as such, Ester for Example 1; read-out: Inhibition of P38 (IC50 nM). As to the method: p38 MAP Kinase Enzyme Assay
The ability of compounds to inhibit p38 MAPα Kinase activity was measured in an assay performed by Upstate (Dundee UK). In a final reaction volume of 25 μL, p38 MAP Kinase α (5-10 mU) is incubated with 25 mM Tris pH 7.5, 0.02 mM EGTA, 0.33 mg/mL myelin basic protein, 10 mM MgAcetate and [γ-^33P-ATP](specific activity approx. 500 cpm/pmol, concentration as required). The reaction is initiated by the addition of the MgATP mix. After incubation for 40 minutes at room temperature, the reaction is stopped by the addition of 5 μL of a 3% phosphoric acid solution. 10 μL of the reaction is then spotted onto a P30 filtermat and washed three times for 5 minutes in 75 mM phosphoric acid and once in methanol prior to drying and scintillation counting.
Duplicate data points are generated from a 1/3 log dilution series of a stock solution in DMSO. Nine dilutions steps are made from a top concentration of […], and a ‘no compound’ blank is included. The standard radiometric filter-binding assay is performed at an ATP concentration at, or close to, the Km. Data from scintillation counts are collected and subjected to free-fit analysis by Prism software. From the curve generated, the concentration giving 50% inhibition is determined and reported.

By IC50 is commonly meant the concentration that gives 50% inhibition.

T1 sequence (Q16539 whole entry): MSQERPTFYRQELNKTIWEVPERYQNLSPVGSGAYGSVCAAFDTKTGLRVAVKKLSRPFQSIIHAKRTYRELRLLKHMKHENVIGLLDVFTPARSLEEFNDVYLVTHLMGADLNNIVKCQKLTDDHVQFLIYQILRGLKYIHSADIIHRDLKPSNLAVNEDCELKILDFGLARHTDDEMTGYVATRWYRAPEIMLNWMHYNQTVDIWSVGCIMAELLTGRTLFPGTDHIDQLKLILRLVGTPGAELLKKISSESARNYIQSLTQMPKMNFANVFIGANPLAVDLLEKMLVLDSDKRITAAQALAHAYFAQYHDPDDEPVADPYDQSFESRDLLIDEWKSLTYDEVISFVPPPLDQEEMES

On to `CC(C)(NCCc1ccc(-n2c(N)c(C(=O)c3ccc(F)cc3F)ccc2=O)cc1)C(=O)OC1CCCC1` [Example 1], for which, in data set [1], the “accumulation in monocytic versus non-monocytic cell line” value is recorded as “only accumulates in the monocytic cell line”. Further, in data set [2], the IC50 is 50 nM.
